Reference: ChEMBL document CHEMBL5465560, “Selectivity Literature for EUbOPEN Chemogenomic Library” (2024)

Key:
[1] = biological target: T1, Serine/threonine-protein kinase Nek5 (Homo sapiens) (UniProt Q6P3R8); conditions: at 10 µM
T1 sequence (whole entry): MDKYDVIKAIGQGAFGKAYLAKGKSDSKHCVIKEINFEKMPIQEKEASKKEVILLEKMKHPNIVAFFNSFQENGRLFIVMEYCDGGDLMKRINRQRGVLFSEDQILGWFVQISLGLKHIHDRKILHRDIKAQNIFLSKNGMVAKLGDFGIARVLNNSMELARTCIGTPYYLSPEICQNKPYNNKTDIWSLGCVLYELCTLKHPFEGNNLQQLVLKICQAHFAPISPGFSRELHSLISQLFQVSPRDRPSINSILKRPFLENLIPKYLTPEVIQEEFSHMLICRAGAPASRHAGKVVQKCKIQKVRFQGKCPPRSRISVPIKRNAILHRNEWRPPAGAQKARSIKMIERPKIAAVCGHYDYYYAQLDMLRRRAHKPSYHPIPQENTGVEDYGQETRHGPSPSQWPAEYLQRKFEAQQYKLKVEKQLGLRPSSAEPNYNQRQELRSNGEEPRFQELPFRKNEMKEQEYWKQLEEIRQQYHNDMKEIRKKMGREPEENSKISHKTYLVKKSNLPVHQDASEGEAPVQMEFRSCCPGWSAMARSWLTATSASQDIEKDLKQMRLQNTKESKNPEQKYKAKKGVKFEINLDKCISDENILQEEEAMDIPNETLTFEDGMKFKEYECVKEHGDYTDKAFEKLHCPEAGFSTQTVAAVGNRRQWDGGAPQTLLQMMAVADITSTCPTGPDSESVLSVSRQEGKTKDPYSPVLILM

[2] = biological target: Wee1-like protein kinase 2 (Homo sapiens) (UniProt P0C1S8); assay: Selectivity interaction (KinomeScan (DiscoverX)) EUB0000655a WEE2; conditions: at 10 µM
[3] = biological target: T2, Serine/threonine-protein kinase BRSK2 (Homo sapiens) (UniProt Q8IWQ3); conditions: at 10 µM
T2 sequence (whole entry): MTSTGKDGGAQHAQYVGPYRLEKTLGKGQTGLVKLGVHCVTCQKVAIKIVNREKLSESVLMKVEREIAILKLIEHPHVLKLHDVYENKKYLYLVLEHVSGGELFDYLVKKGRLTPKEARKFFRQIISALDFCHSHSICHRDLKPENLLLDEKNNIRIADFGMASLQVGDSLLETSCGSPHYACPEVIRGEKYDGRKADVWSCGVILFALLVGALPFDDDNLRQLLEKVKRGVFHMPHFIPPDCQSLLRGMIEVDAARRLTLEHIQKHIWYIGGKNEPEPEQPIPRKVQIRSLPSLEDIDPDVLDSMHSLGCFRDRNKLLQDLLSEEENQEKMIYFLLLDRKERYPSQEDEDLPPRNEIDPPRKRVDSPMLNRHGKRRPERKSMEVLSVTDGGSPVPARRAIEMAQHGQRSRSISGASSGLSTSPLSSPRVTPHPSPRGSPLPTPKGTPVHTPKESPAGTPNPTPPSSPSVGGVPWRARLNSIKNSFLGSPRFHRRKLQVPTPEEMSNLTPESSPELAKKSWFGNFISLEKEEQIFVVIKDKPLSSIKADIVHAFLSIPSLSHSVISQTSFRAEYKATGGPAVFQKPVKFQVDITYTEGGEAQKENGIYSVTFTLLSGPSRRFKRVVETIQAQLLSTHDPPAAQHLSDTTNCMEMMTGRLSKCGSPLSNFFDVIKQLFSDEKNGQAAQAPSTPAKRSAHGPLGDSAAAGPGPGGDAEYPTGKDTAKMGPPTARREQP

[4] = biological target: Cyclin-dependent kinase 16 (Homo sapiens) (UniProt Q00536); assay: Selectivity interaction (ActivX KiNativ screen (kinase selectivity in THP-1 cell lysates)) EUB0000639a CDK16; assay type: subcellular; conditions: lysate, at 0.04 µM
[5] = biological target: T3, Alpha-1B adrenergic receptor (Homo sapiens) (UniProt P35368); assay: Selectivity interaction (Panel of kinases, GPCRs, ion channels and transporters (enzymatic assay)) EUB0000223bCl ADRA1B
T3 sequence (whole entry): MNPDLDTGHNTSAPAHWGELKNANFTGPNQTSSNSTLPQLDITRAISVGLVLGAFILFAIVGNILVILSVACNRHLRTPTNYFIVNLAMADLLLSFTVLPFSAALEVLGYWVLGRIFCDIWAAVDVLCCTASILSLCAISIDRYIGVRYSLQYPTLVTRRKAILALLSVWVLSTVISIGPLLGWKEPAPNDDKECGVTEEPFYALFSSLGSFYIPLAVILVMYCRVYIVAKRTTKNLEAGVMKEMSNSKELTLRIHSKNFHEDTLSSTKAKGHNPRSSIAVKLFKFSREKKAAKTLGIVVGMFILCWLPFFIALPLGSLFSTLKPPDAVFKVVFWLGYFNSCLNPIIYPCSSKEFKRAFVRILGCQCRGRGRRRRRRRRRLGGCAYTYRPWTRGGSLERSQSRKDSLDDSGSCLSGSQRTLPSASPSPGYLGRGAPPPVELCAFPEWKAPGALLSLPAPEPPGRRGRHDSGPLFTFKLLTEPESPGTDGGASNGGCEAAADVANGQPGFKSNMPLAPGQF

[6] = biological target: T4, MAP kinase-activated protein kinase 5 (Homo sapiens) (UniProt Q8IW41); assay: Selectivity interaction (Kinase panel (literature)) EUB0001199aCl MAPKAPK5; conditions: at 1 µM
T4 sequence (whole entry): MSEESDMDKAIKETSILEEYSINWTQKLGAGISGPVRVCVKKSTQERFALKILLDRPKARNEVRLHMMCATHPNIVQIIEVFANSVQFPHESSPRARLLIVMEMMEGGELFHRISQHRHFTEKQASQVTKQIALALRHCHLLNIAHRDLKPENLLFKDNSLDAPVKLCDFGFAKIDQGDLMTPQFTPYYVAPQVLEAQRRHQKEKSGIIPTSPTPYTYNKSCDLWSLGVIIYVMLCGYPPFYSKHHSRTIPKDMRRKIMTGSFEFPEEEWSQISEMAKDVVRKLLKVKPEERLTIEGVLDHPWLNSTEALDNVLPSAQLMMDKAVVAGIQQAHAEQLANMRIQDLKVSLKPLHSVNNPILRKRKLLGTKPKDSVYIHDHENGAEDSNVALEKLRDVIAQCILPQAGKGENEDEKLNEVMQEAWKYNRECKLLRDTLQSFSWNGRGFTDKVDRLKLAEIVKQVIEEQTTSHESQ

[7] = biological target: Tyrosine-protein kinase Lck (Homo sapiens, UniProt P06239); assay: Selectivity interaction (KinomeScan (DiscoverX)) EUB0000618a LCK; conditions: at 10 µM
[8] = biological target: Proto-oncogene tyrosine-protein kinase Src (Homo sapiens, UniProt P12931); assay: Selectivity interaction (ActivX KiNativ screen (ex vivo kinase selectivity in human PBMCs)) EUB0001619a SRC; assay type: cell-based; conditions: PBMC, at 1 µM
Proto-oncogene tyrosine-protein kinase Src, sequence (P12931 2-536 limits assumed): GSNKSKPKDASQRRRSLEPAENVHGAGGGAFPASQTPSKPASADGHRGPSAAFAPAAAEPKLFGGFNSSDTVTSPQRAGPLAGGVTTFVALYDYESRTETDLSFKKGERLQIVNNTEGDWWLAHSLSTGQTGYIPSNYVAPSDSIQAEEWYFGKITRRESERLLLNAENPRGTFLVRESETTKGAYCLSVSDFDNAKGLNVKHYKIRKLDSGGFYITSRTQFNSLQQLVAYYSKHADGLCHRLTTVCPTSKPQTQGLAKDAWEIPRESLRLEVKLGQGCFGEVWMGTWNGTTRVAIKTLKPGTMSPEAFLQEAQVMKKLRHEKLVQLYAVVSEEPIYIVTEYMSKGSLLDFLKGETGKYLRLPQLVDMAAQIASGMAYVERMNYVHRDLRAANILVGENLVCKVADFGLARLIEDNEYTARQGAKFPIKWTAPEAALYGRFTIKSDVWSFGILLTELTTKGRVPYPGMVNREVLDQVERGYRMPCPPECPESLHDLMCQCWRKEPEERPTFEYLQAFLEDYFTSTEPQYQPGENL

Tyrosine-protein kinase Lck, sequence (P06239 2-509 limits assumed): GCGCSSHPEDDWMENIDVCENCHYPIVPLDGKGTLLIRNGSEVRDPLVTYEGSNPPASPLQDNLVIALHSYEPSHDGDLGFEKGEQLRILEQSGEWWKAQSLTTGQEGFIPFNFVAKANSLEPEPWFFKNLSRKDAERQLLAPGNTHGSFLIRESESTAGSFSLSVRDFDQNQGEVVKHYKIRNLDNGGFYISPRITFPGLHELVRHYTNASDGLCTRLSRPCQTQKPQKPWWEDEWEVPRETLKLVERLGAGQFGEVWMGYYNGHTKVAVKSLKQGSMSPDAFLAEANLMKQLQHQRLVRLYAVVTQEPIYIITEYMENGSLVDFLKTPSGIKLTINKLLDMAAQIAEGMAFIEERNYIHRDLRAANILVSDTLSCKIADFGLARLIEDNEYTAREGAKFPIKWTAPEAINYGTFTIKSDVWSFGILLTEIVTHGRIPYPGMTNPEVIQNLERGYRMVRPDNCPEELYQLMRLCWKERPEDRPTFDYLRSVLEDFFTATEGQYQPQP
Cyclin-dependent kinase 16 (Homo sapiens), sequence (Q00536 whole entry): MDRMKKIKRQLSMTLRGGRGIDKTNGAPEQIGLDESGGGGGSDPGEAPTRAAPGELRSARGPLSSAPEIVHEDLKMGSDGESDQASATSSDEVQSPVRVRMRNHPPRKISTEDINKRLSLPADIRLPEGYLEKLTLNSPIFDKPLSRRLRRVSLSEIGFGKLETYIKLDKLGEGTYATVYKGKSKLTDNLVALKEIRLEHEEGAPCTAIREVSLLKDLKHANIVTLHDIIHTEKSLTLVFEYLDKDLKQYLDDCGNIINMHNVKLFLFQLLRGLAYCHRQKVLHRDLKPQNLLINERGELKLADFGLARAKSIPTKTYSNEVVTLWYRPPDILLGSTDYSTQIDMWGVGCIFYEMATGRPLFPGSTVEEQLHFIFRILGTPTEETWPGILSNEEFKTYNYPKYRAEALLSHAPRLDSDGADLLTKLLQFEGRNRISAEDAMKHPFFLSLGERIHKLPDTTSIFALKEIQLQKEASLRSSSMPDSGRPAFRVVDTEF
Wee1-like protein kinase 2 (Homo sapiens), sequence (P0C1S8 whole entry, looked up): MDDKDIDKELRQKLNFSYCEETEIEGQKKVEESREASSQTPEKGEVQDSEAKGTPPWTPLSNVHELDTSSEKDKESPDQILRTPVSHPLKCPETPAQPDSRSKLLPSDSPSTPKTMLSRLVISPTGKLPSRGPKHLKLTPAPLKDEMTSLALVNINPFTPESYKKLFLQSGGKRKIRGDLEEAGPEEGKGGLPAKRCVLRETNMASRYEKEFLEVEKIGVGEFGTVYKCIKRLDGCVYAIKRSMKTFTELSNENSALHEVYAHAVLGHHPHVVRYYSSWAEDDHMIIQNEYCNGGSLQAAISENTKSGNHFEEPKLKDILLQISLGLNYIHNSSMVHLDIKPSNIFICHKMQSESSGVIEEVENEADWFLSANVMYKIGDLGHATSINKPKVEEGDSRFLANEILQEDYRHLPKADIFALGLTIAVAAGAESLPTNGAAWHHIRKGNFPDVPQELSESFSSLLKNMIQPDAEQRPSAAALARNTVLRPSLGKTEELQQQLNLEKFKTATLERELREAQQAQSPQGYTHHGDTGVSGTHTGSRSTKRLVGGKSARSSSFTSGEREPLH

With CCN(CC)CCCCNc1ncc2cc(-c3cc(OC)cc(OC)c3)c(NC(=O)NC(C)(C)C)nc2n1 as the compound, how does the % of control [1] read?
Its % of control is 100%.

Which % of control [2] does the source give for CN(C)CCOc1ccc(-c2nc(-c3ccncc3)c(-c3ccc4c(c3)CC/C4=N\O)[nH]2)cc1 here?
The % of control was 100%.

Cc1cc([C@@H](C)Nc2ccccc2C(=O)O)c2nc(N3CCOCC3)cc(=O)n2c1 [AZD-6482] was tested. Which % of control [3] did it give?
The % of control was 100%.

With CC[C@@H]1[C@H](F)C(=O)N[C@@H]1COc1nccc2cc(C(N)=O)c(OC)cc12 [ZIMLOVISERTIB] as the compound, how does the % of inhibition [4] read?
The % of inhibition was 0.5%.

For COc1cc(C(=O)N2CC[C@@H](O)[C@@H](N)C2)cc2nc(-c3cc4ccccc4n3CC3CC3)n(C)c12, which pXC50 [5] is on record?
Its pXC50 is 4.9 M.

Which % of inhibition [6] does the source give for CN1Cc2nccc(-c3cn(C)nc3-c3ccc(F)cc3)c2C1=O here?
Its % of inhibition is -1%.

Which % of control [7] does the source give for O[C@H]1CC[C@H](Nc2ncc3nc(Nc4c(F)cc(F)cc4F)n([C@H]4CCOC4)c3n2)CC1 here?
Its % of control is 57%.

With N#Cc1cccc(-c2c[nH]c3ncnc(N4CCOCC4)c23)c1 as the compound, how does the % of inhibition [8] read?
The % of inhibition was -2%.
